Measurements from US20220000111A1, “METHODS OF INCREASING ALMOND YIELD” (Valent U.S.A. LLC, priority 2020, published 2022).

How the values were obtained:
Format in all cases: in vivo
[1] = system: almond trees; assay: Example 1: foliar AVG-HCl application to almond trees, 2018-2019, nutmeat yield and kernel doubling at harvest; details: for percentage of shells harvested that contained two nut kernels, Average / yield at harvest of almond nutmeat, Average: average of trials
Method: […] of AVG applications were performed over a 2-year period. Each set of applications included a set of untreated control (“UTC”) trees. For the two sets of applications performed during the 2018 calendar year AVG-HCl was applied to almond trees either between 10% and full bloom (i.e. bloom) or between 6-7 weeks following full bloom (i.e. post-bloom). For the three sets of applications performed during the 2019 calendar year an additional application was performed as follows: 3-4 weeks post-bloom in combination with 6-7 weeks post-bloom.

[2] = system: almond trees; assay: Example 2: foliar AVG-HCl application at full bloom or after, nonpareil and carmel almonds; details: for % Kernel Doubling / Nutmeat Yield / Nuts/Tree: 124 g/Ha
Method: 2 sets of AVG applications were performed on 2 varieties of almonds, nonpareil and […]. For the two sets of applications performed AVG-HCl was applied to almond trees either at full bloom or after full bloom, specifically at 22, 26, 29 or 33 days after full bloom (“DAFB”).

[3] = system: almond trees; assay: Example 3: foliar AVG-HCl application at full bloom or after, nonpareil and carmel almonds; details: for % Kernel Doubling / Nutmeat Yield / Nuts/Tree: 124 g/Ha
Method: 2 sets of AVG applications were performed on 2 varieties of almonds, nonpareil and […]. For the two sets of applications performed AVG-HCl was applied to almond trees either at full bloom or after full bloom, specifically 15, 22, 26, 32, 36 or 38 DAFB.

[4] = system: almond trees; assay: Example 4: foliar AVG-HCl application to nonpareil almonds at Newman and Sutter, 2020; details: for percentage of shells harvested that contained two nut kernels / yield at harvest of almond nutmeat: nonpareil, 124 g/Ha
Method: 2 sets of AVG applications were performed on nonpareil almonds at Newman, Calif. and Sutter, Calif. in 2020. Each set of applications included a set of untreated control (“UTC”) trees. AVG-HCl was applied to almond trees either at 50% bloom (i.e. bloom), shuck split, or 7 days following shuck split.

[5] = 3-4 weeks Post-bloom & 6-7 weeks Post-bloom, 2 apps, 62 g/Ha each
[6] = 3-4 weeks Post-bloom & 6-7 weeks Post-bloom, 2 apps, 62 g/Ha each, trial 2019-1
[7] = 3-4 weeks Post-bloom & 6-7 weeks Post-bloom, 2 apps, 62 g/Ha each, trial 2019-2
[8] = 3-4 weeks Post-bloom & 6-7 weeks Post-bloom, 2 apps, 62 g/Ha each, trial 2019-3
[9] = 6-7 weeks Post-bloom, 1 app, 124 g/Ha
[10] = 6-7 weeks Post-bloom, 1 app, 124 g/Ha, trial 2018-1 (second column)
[11] = 6-7 weeks Post-bloom, 1 app, 124 g/Ha, trial 2019-1
[12] = 6-7 weeks Post-bloom, 1 app, 124 g/Ha, trial 2019-2
[13] = 6-7 weeks Post-bloom, 1 app, 124 g/Ha, trial 2019-3
[14] = Bloom, 1 app, 124 g/Ha, trial 2018-1 (second column)
[15] = Bloom, 1 app, 124 g/Ha, trial 2019-1
[16] = Bloom, 1 app, 124 g/Ha, trial 2019-2
[17] = Bloom, 1 app, 124 g/Ha, trial 2019-3
[18] = Newman, 7-days post shuck split
[19] = Sutter, 7-days post shuck split

NCCO/C=C/[C@H](N)C(=O)O (stereo in doubt) [AVG, [S]-trans-2-amino-4-(2-aminoethoxy)-3-butenoic acid]
kernel doubling, in words ([1]; application during bloom (Table 2)): statistically significant increase in kernel doubling
nutmeat yield, in words ([1]; application during bloom, versus untreated control (Table 1)): increases nutmeat yield over untreated control
kernel doubling, in words ([1]; application post-bloom (Table 2)): did not result in a statistically significant increase in kernel doubling
nutmeat yield, in words ([1]; application post-bloom, versus bloom treatment (Table 1)): greater increase in nutmeat yield than that obtained when treating during bloom
nutmeat yield, in words ([2]; application during bloom or following full bloom, nonpareil and carmel (Tables 3 and 4)): increases nutmeat yield
kernel doubling, in words ([2]; application during bloom, nonpareil and carmel (Tables 3 and 4)): statistically significant increase in kernel doubling
kernel doubling, in words ([2]; application post-bloom, nonpareil and carmel (Tables 3 and 4)): did not result in a statistically significant increase in kernel doubling
nutmeat yield, in words ([3]; application during bloom or following full bloom, nonpareil and carmel (Tables 5 and 6)): increases nutmeat yield
kernel doubling, in words ([3]; application during bloom, nonpareil and carmel (Tables 5 and 6)): statistically significant increase in kernel doubling
kernel doubling, in words ([3]; application post-bloom, nonpareil and carmel (Tables 5 and 6)): did not result in a statistically significant increase in kernel doubling
nutmeat yield, in words ([4]; application during bloom, versus untreated control (Table 7)): increases nutmeat yield over untreated control
kernel doubling, in words ([4]; application during bloom, Sutter, Calif. trial (Table 8)): statistically significant increase in kernel doubling
kernel doubling, in words ([4]; application post-bloom (Table 8)): did not result in a statistically significant increase in kernel doubling
nutmeat yield, in words ([4]; application post-bloom, versus bloom treatment (Table 7)): greater increase in nutmeat yield than that obtained when treating during bloom

Cl.NCCO/C=C/[C@H](N)C(=O)O [AVG-HCl]
percentage of shells harvested that contained two nut kernels, Average [1, 5]: 1.55 b %
yield at harvest of almond nutmeat, Average [1, 5]: 1229 a kilograms per hectare
percentage of shells harvested that contained two nut kernels [1, 6]: 1.3 b %
yield at harvest of almond nutmeat [1, 6]: 1164 kilograms per hectare
percentage of shells harvested that contained two nut kernels [1, 7]: 1.5 abc %
yield at harvest of almond nutmeat [1, 7]: 1698 a kilograms per hectare
percentage of shells harvested that contained two nut kernels [1, 8]: 1.9 b %
yield at harvest of almond nutmeat [1, 8]: 825 b kilograms per hectare
percentage of shells harvested that contained two nut kernels, Average [1, 9]: 2.11 b %
yield at harvest of almond nutmeat, Average [1, 9]: 1033 ab kilograms per hectare
yield at harvest of almond nutmeat ([1]; 6-7 weeks Post-bloom, 1 app, 124 g/Ha, trial 2018-1 (first column)): 721 kilograms per hectare
percentage of shells harvested that contained two nut kernels [1, 10]: 6.6 b %
yield at harvest of almond nutmeat [1, 10]: 1345 a kilograms per hectare
percentage of shells harvested that contained two nut kernels [1, 11]: 2.5 ab %
yield at harvest of almond nutmeat [1, 11]: 1168 kilograms per hectare
percentage of shells harvested that contained two nut kernels [1, 12]: 1.08 bc %
yield at harvest of almond nutmeat [1, 12]: 1220 b kilograms per hectare
percentage of shells harvested that contained two nut kernels [1, 13]: 0.7 bc %
yield at harvest of almond nutmeat [1, 13]: 713 bc kilograms per hectare
percentage of shells harvested that contained two nut kernels, Average ([1]; Bloom, 1 app, 124 g/Ha): 8.62 a %
yield at harvest of almond nutmeat, Average ([1]; Bloom, 1 app, 124 g/Ha): 1068 ab kilograms per hectare
yield at harvest of almond nutmeat ([1]; Bloom, 1 app, 124 g/Ha, trial 2018-1 (first column)): 712 kilograms per hectare
percentage of shells harvested that contained two nut kernels [1, 14]: 27.7 a %
yield at harvest of almond nutmeat [1, 14]: 1148 b kilograms per hectare
percentage of shells harvested that contained two nut kernels [1, 15]: 3.5 a %
yield at harvest of almond nutmeat [1, 15]: 1204 kilograms per hectare
percentage of shells harvested that contained two nut kernels [1, 16]: 2.92 ab %
yield at harvest of almond nutmeat [1, 16]: 1198 b kilograms per hectare
percentage of shells harvested that contained two nut kernels [1, 17]: 15.9 a %
yield at harvest of almond nutmeat [1, 17]: 1031 a kilograms per hectare
% Kernel Doubling ([2]; carmel, 22 DAFB): 5.6 bc %
Nutmeat Yield ([2]; carmel, 22 DAFB): 7.94 kg/tree
Nuts/Tree ([2]; carmel, 22 DAFB): 8499 b nuts per tree
% Kernel Doubling ([2]; carmel, 26 DAFB): 3.7 c %
Nutmeat Yield ([2]; carmel, 26 DAFB): 8.50 kg/tree
Nuts/Tree ([2]; carmel, 26 DAFB): 9676 a nuts per tree
% Kernel Doubling ([2]; carmel, Full Bloom): 7.6 a %
Nutmeat Yield ([2]; carmel, Full Bloom): 7.04 kg/tree
Nuts/Tree ([2]; carmel, Full Bloom): 7039 b nuts per tree
% Kernel Doubling ([2]; nonpareil, 29 DAFB): 1.4 b %
Nutmeat Yield ([2]; nonpareil, 29 DAFB): 8.64 a kg/tree
Nuts/Tree ([2]; nonpareil, 29 DAFB): 8435 a nuts per tree
% Kernel Doubling ([2]; nonpareil, 33 DAFB): 0.4 b %
Nutmeat Yield ([2]; nonpareil, 33 DAFB): 7.89 ab kg/tree
Nuts/Tree ([2]; nonpareil, 33 DAFB): 8350 a nuts per tree
% Kernel Doubling ([2]; nonpareil, Full Bloom): 3.8 a %
Nutmeat Yield ([2]; nonpareil, Full Bloom): 8.03 ab kg/tree
Nuts/Tree ([2]; nonpareil, Full Bloom): 8153 ab nuts per tree
% Kernel Doubling ([3]; carmel, 15 DAFB): 0.4 b %
Nutmeat Yield ([3]; carmel, 15 DAFB): 6.00 kg/tree
Nuts/Tree ([3]; carmel, 15 DAFB): 7271 nuts per tree
% Kernel Doubling ([3]; carmel, 22 DAFB): 1.4 b %
Nutmeat Yield ([3]; carmel, 22 DAFB): 5.40 kg/tree
Nuts/Tree ([3]; carmel, 22 DAFB): 7427 nuts per tree
% Kernel Doubling ([3]; carmel, 32 DAFB): 0.6 b %
Nutmeat Yield ([3]; carmel, 32 DAFB): 5.30 kg/tree
Nuts/Tree ([3]; carmel, 32 DAFB): 6972 nuts per tree
% Kernel Doubling ([3]; carmel, 38 DAFB): 1 b %
Nutmeat Yield ([3]; carmel, 38 DAFB): 7.00 kg/tree
Nuts/Tree ([3]; carmel, 38 DAFB): 8875 nuts per tree
% Kernel Doubling ([3]; carmel, Full Bloom): 8.4 a %
Nutmeat Yield ([3]; carmel, Full Bloom): 6.10 kg/tree
Nuts/Tree ([3]; carmel, Full Bloom): 7097 nuts per tree
% Kernel Doubling ([3]; nonpareil, 26 DAFB): 0.8 b %
Nutmeat Yield ([3]; nonpareil, 26 DAFB): 5.9 kg/tree
Nuts/Tree ([3]; nonpareil, 26 DAFB): 7636.8 nuts per tree
% Kernel Doubling ([3]; nonpareil, 36 DAFB): 0.6 c %
Nutmeat Yield ([3]; nonpareil, 36 DAFB): 6 kg/tree
Nuts/Tree ([3]; nonpareil, 36 DAFB): 7789.8 nuts per tree
% Kernel Doubling ([3]; nonpareil, Full Bloom): 2.0 a %
Nutmeat Yield ([3]; nonpareil, Full Bloom): 4.3 kg/tree
Nuts/Tree ([3]; nonpareil, Full Bloom): 5251.6 nuts per tree
percentage of shells harvested that contained two nut kernels [4, 18]: 3.0%
yield at harvest of almond nutmeat [4, 18]: 3726 a kilograms per hectare
percentage of shells harvested that contained two nut kernels ([4]; Newman, Bloom (50% bloom)): 2.7%
yield at harvest of almond nutmeat ([4]; Newman, Bloom (50% bloom)): 3188 c kilograms per hectare
percentage of shells harvested that contained two nut kernels ([4]; Newman, Shuck split): 2.2%
yield at harvest of almond nutmeat ([4]; Newman, Shuck split): 3369 b kilograms per hectare
percentage of shells harvested that contained two nut kernels [4, 19]: 0.5%
yield at harvest of almond nutmeat [4, 19]: 3558 ab kilograms per hectare
percentage of shells harvested that contained two nut kernels ([4]; Sutter, Bloom (50% bloom)): 1.2%
yield at harvest of almond nutmeat ([4]; Sutter, Bloom (50% bloom)): 3658 a kilograms per hectare
percentage of shells harvested that contained two nut kernels ([4]; Sutter, Shuck split): 0.7%
yield at harvest of almond nutmeat ([4]; Sutter, Shuck split): 3758 a kilograms per hectare
